Series [1] in a line: Loss of tail withdrawal reflex (LOTWR) in rats, single intravenous injection, dose escalation: potent analgesic effect and severe adverse reactions. The format is in vivo, SD rats. The conditions noted are these: rat, in vivo, single intravenous injection, minimum dose resulting in serious adverse reactions / minimum effective dose, class symbol, read-out: The safety therapeutic index. The method, then:
(§1) Using the loss of tail withdrawal reflex (LOTWR) in rats as an indicator, the potent analgesic effect of the compounds according to the present invention was evaluated.
(§2) 1.1 Experimental animals: Adult male SD rats weighing between 220-300 g were selected for the experiment. The rats were housed in sawdust-bedded cages with a temperature of 25±1°C, humidity ranging from 40% to 60%, and a 12-hour light/12-hour dark cycle. Each cage contained no more than 5 rats, with free access to water and food.
(§3) • (1) The compound of the present invention, along with the positive control drug remifentanil and the negative control (vehicle), were administered in fixed volumes. A dose escalation approach was employed to determine the minimum effective dose at which the compound of the present invention produces potent analgesic effects, as well as the minimum dose at which severe adverse reactions first appear. • (2) LOTWR lasting for 30 seconds was used as the criterion for generating potent analgesic effects. During the experiment, drugs were administered via the tail vein of rats, with a dosage volume of 0.6 mL per rat and a dosage rate of 0.02 mL/s. Subsequently, an alligator clip was applied at a distance of 1 cm from the base of the rat's tail, clamping once longitudinally and once transversely before being left in place. Meanwhile, the distal end of the alligator clip was continuously oscillated (30 times/min) to continuously generate stimulation. […] When all results were "no LOTWR" after 10 minutes of testing (5 trials), the test was stopped and recorded as "ineffective." • (3) All compounds would undergo a dose escalation for efficacy evaluation, starting from 1 mg/kg (due to the high potency of remifentanil, the lowest dose was set at 1 µg/kg), followed by 5 mg/kg, 10 mg/kg, 20 mg/kg, and so on (increasing by 20 mg/kg increments after 20 mg/kg). The dose escalation would be stopped when rats show signs of death, and the lowest effective dose and the lowest dose at which severe adverse reactions occur would be recorded throughout the process. In this study, severe adverse reactions are defined as apnea, generalized tonic rigidity, convulsions, opisthotonus, seizures, etc.
(§4) 1.3 Evaluation indicators: the minimum effective dose; the minimum dose resulting in serious adverse reactions; the safety therapeutic index = "the minimum dose resulting in serious adverse reactions" / "the minimum effective dose".

For series [2], the system named is rats. Described as above. The format is in vivo, SD rats. The conditions noted are these: Rattus norvegicus, single intravenous injection (tail vein), LOTWR lasting for 30 seconds as criterion, class symbol, read-out: The minimum effective dose. How it is done: as §1, §2, §3, §4

For the molecule `CCCCc1ccc(CNC(=O)NCc2ccsc2)c(N(C)C)c1` [Example 53], the selectivity ratio in series [1] is no more than 2. For the same molecule, in series [2], the minimal effective dose was no more than 10 mg/kg.

For the molecule `Cc1ccc(CNC(=O)NCc2ccsc2)c(N2CCCCC2)c1` [Example 54], the selectivity ratio in series [1] is no more than 2. In addition, the minimal effective dose in series [2] was no more than 10 mg/kg.

`CCN(CC)c1cc(C)ccc1CNC(=O)NCc1ccsc1` [Example 55]: in series [1], the selectivity ratio was no more than 2. Besides, the minimal effective dose in series [2] is no more than 10 mg/kg.

Regarding `CN(C)c1cc(CCNC(=O)C2COC2)ccc1CNC(=O)NCc1ccsc1` [Example 56], the selectivity ratio in series [1] was no more than 2. In addition, the minimal effective dose in series [2] is no more than 10 mg/kg.

Consider `CNc1cc(C)ccc1CNC(=O)NCc1ccsc1` [Example 57], for which the selectivity ratio in series [1] was no more than 2. Further, in series [2], the minimal effective dose lay in the range of 10 to 20 mg/kg.

On to `Cc1ccc(CNC(=O)NCc2ncc[nH]2)cc1N(C)C` [Example 58], for which the selectivity ratio in series [1] was no more than 2. Further, the minimal effective dose in series [2] was greater than 30 mg/kg.

Consider `Cc1ccc(NC(=O)NCc2ncc[nH]2)c(N(C)C)c1` [Example 59], for which the selectivity ratio in series [1] was in the range of 2 to 4. For the same molecule, the minimal effective dose in series [2] lay within 10 to 20 mg/kg.

Turning to `Cc1ccc(NC(=O)NCc2ccns2)c(N(C)C)c1` [Example 60], the selectivity ratio in series [1] was no more than 2. Also, in series [2], the minimal effective dose lay in the range of 10 to 20 mg/kg.

`Cc1ccc(CNC(=O)Nc2ccns2)c(N(C)C)c1` [Example 61]: the selectivity ratio in series [1] was no more than 2. Moreover, the minimal effective dose in series [2] was no more than 10 mg/kg.

`Cc1ccc(CNC(=O)NCc2ccccc2)c(N(C)C)c1` [Example 62]: the selectivity ratio in series [1] lay in the range of 2 to 4. The minimal effective dose in series [2] is 10 to 20 mg/kg.

For `Cc1cc(C)cc(CNC(=O)NCc2ccc(C)cc2N(C)C)c1` [Example 63], the selectivity ratio in series [1] was no more than 2. Besides, the minimal effective dose in series [2] was no more than 10 mg/kg.

`Cc1ccc(CNC(=O)NCc2cnc[nH]2)c(N(C)C)c1` [Example 64]: the selectivity ratio in series [1] was greater than 4. For the same molecule, the minimal effective dose in series [2] is no more than 10 mg/kg.

As to `Cc1ccc(CNC(=O)NCc2ccnn2C)c(N(C)C)c1` [Example 65], in series [1], the selectivity ratio was greater than 4. Further, the minimal effective dose in series [2] is no more than 10 mg/kg.

Regarding `Cc1ccc(CNC(=S)NCc2ccns2)c(N(C)C)c1` [Example 66], in series [1], the selectivity ratio lay within 2 to 4. In addition, the minimal effective dose in series [2] is no more than 10 mg/kg.

With `Cc1ccc(CNC(=S)NCc2cccs2)c(N(C)C)c1` [Example 67], the selectivity ratio in series [1] is greater than 4. For the same molecule, the minimal effective dose in series [2] was no more than 10 mg/kg.

As to `Cc1ccc(CNC(=S)NCc2ccns2)cc1N(C)C` [Example 68], in series [1], the selectivity ratio lay within 2 to 4. Further, the minimal effective dose in series [2] was no more than 10 mg/kg.

Turning to `Cc1ccc(CNC(=S)NCc2ccco2)c(N(C)C)c1` [Example 69], the selectivity ratio in series [1] lay within 2 to 4. Further, the minimal effective dose in series [2] was no more than 10 mg/kg.

On to `Cc1ccc(CNC(=S)NCc2ccoc2)c(N(C)C)c1` [Example 70], for which the selectivity ratio in series [1] was no more than 2. For the same molecule, the minimal effective dose in series [2] is 10 to 20 mg/kg.

Regarding `Cc1ccc(CNC(=S)NCc2ccco2)cc1N(C)C` [Example 71], in series [1], the selectivity ratio was no more than 2. In series [2], the minimal effective dose was no more than 10 mg/kg.

In the case of `Cc1ccc(CNC(=S)NCc2ccoc2)cc1N(C)C` [Example 72], the selectivity ratio in series [1] is 2 to 4. For the same molecule, in series [2], the minimal effective dose is no more than 10 mg/kg.

On to `Cc1ccc(CNC(=S)NCc2ncc[nH]2)c(N(C)C)c1` [Example 74], for which the selectivity ratio in series [1] is no more than 2. Also, in series [2], the minimal effective dose was greater than 30 mg/kg.

Regarding `Cc1ccc(CNC(=N)NCc2ncc[nH]2)c(N(C)C)c1` [Example 75], the selectivity ratio in series [1] lay within 2 to 4. In addition, the minimal effective dose in series [2] was no more than 10 mg/kg.

`CCCc1ccc(CNC(=S)NCc2cccs2)c(N(C)C)c1` [Example 76]: in series [1], the selectivity ratio was greater than 4. Moreover, the minimal effective dose in series [2] was no more than 10 mg/kg.

Consider `CCCc1ccc(CNC(=S)NCc2cccs2)cc1N(C)C` [Example 77], for which the selectivity ratio in series [1] lay within 2 to 4. Besides, in series [2], the minimal effective dose is no more than 10 mg/kg.

With `CN(C)c1ccc(CNC(=O)NCc2cccs2)cc1` [Example 78], in series [1], the selectivity ratio was no more than 2. Further, in series [2], the minimal effective dose lay in the range of 10 to 20 mg/kg.

Regarding `Cc1ccc(NC(=S)Nc2ccsc2)cc1N(C)C` [Example 79], in series [1], the selectivity ratio is no more than 2. Further, the minimal effective dose in series [2] is 20 to 30 mg/kg.

On to `Cc1ccc(CCNC(=S)Nc2cccs2)c(N(C)C)c1` [Example 81], for which the selectivity ratio in series [1] was in the range of 2 to 4. For the same molecule, in series [2], the minimal effective dose was no more than 10 mg/kg.

Consider `[2H]C([2H])([2H])N(c1cc(C)ccc1CNC(=S)NCc1cccs1)C([2H])([2H])[2H]` [Example 82], for which the selectivity ratio in series [1] was in the range of 2 to 4. Also, in series [2], the minimal effective dose is no more than 10 mg/kg.

For `Cc1ccc(NC(=S)Nc2cccs2)c(N(C)C)c1` [Example 83], the selectivity ratio in series [1] is greater than 4. Further, the minimal effective dose in series [2] was no more than 10 mg/kg.

As to `Cc1ccc(CNC(=S)NCc2ccccc2)c(N(C)C)c1` [Example 85], the selectivity ratio in series [1] was no more than 2. Also, in series [2], the minimal effective dose was no more than 10 mg/kg.

Turning to `Cc1ccc(CNC(=S)NCc2ccccc2)cc1N(C)C` [Example 86], the selectivity ratio in series [1] lay within 2 to 4. Further, the minimal effective dose in series [2] is no more than 10 mg/kg.

Regarding `Cc1ccc(CNC(=S)NCc2ccnn2C)c(N(C)C)c1` [Example 87], in series [1], the selectivity ratio is greater than 4. The minimal effective dose in series [2] is no more than 10 mg/kg.

As for `CN(C)c1cc(C(F)(F)F)ccc1CNC(=S)NCc1cccs1` [Example 88], the selectivity ratio in series [1] is greater than 4. The minimal effective dose in series [2] was no more than 10 mg/kg.

As for `Cc1ccc(CNC(=S)NCc2cccs2)c(N2CCOCC2)c1` [Example 89], the selectivity ratio in series [1] lay in the range of 2 to 4. In addition, the minimal effective dose in series [2] was no more than 10 mg/kg.

Take `Cc1ccc(CNC(=N)NCc2ccns2)c(N(C)C)c1` [Example 90]: in series [1], the selectivity ratio lay in the range of 2 to 4. Besides, the minimal effective dose in series [2] was no more than 10 mg/kg.

As to `Cc1ccc(CNC(=N)NCc2ccno2)c(N(C)C)c1` [Example 92], the selectivity ratio in series [1] fell in the range of 2 to 4. Moreover, the minimal effective dose in series [2] is no more than 10 mg/kg.

As to `Cc1ccc(CNC(=S)NCc2cc3ccccc3s2)c(N(C)C)c1` [Example 93], the selectivity ratio in series [1] is no more than 2. The minimal effective dose in series [2] is no more than 10 mg/kg.

For `Cc1ccc(CNC(=S)NCc2ccc3ccsc3c2)c(N(C)C)c1` [Example 94], the selectivity ratio in series [1] is greater than 4. For the same molecule, the minimal effective dose in series [2] is no more than 10 mg/kg.

As for `CN(C)c1cccc(NC(=N)Nc2cccs2)c1` [Example 95], the selectivity ratio in series [1] was no more than 2. Moreover, the minimal effective dose in series [2] is no more than 10 mg/kg.

As to `CN(C)c1cccc(NC(=N)Nc2ccsc2)c1` [Example 96], the selectivity ratio in series [1] is no more than 2. Besides, the minimal effective dose in series [2] was no more than 10 mg/kg.

Regarding `CN(C)c1ccccc1NC(=O)Nc1ccns1` [Example 97], in series [1], the selectivity ratio was no more than 2. Also, the minimal effective dose in series [2] is greater than 30 mg/kg.

`Cc1ccc(CSC(=S)SCc2cccs2)c(N(C)C)c1` [Example 98]: the selectivity ratio in series [1] is no more than 2. Further, in series [2], the minimal effective dose was greater than 30 mg/kg.

Regarding `Cc1ccc(CSC(=O)OCc2ccsc2)c(N(C)C)c1` [Example 99], in series [1], the selectivity ratio was no more than 2. In series [2], the minimal effective dose is greater than 30 mg/kg.

On to `Cc1ccc(COC(=S)SCc2ccsc2)c(N(C)C)c1` [Example 100], for which the selectivity ratio in series [1] was no more than 2. The minimal effective dose in series [2] is greater than 30 mg/kg.

With `Cc1ccc(CSC(=O)SCc2cccs2)c(N(C)C)c1` [Example 101], the selectivity ratio in series [1] was 2 to 4. In series [2], the minimal effective dose is greater than 30 mg/kg.

Turning to `Cc1ccc(CNC(=O)Nc2ncc[nH]2)c(N(C)C)c1` [Example 103], in series [1], the selectivity ratio was greater than 4. Also, the minimal effective dose in series [2] is no more than 10 mg/kg.

On to `Cc1ccc(CNC(=O)Nc2ccn[nH]2)c(N(C)C)c1` [Example 104], for which the selectivity ratio in series [1] is no more than 2. Also, in series [2], the minimal effective dose is greater than 30 mg/kg.

Take `CN(C)c1cc(CNC(=O)NCc2ccco2)ccc1C(F)(F)F` [Example 105]: in series [1], the selectivity ratio was greater than 4. The minimal effective dose in series [2] was no more than 10 mg/kg.

In the case of `Cc1ccc(CNC(=S)Nc2cncs2)c(N(C)C)c1` [Example 106], the selectivity ratio in series [1] was greater than 4. The minimal effective dose in series [2] was no more than 10 mg/kg.

As for `Cc1ccc(CNC(=S)NCc2cc(C)nn2C)c(N(C)C)c1` [Example 107], in series [1], the selectivity ratio is 2 to 4. Also, in series [2], the minimal effective dose was 10 to 20 mg/kg.

As to `Cc1ccc(CNC(=N)NCc2cc(C)nn2C)c(N(C)C)c1` [Example 108], the selectivity ratio in series [1] was greater than 4. The minimal effective dose in series [2] was no more than 10 mg/kg.

Regarding `Cc1ccc(CNC(=N)NCc2ccnn2C)cc1N(C)C` [Example 109], the selectivity ratio in series [1] is no more than 2. Also, the minimal effective dose in series [2] was no more than 10 mg/kg.

Turning to `Cc1cc(CNC(=N)NCc2ccc(C)c(N(C)C)c2)n(C)n1` [Example 110], the selectivity ratio in series [1] was no more than 2. The minimal effective dose in series [2] was no more than 10 mg/kg.

The record behind these values is EP4786459A1, “BENZENE RING-CONTAINING COMPOUND HAVING ANALGESIC EFFECT, PREPARATION METHOD THEREFOR, AND USE THEREOF” (West China Hospital, Sichuan University, priority 2023, dated 2025).
